According to the supplement of paper PMC8837787:

The compounds below were run on Saccharomyces cerevisiae ABC16-Green Monster. Conditions: 18 h; 30 °C; YPD.
Method in brief: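 Log-phase cultures of the drug-sensitive S. cerevisiae ABC16-Green Monster strain in YPD were dispensed at 200 µl per well into 96-well plates. They were exposed to eight 1:2 compound dilutions (final 0.1–150 μM) in biological duplicate, with untreated cultures in parallel, at 30 °C for 18 h. OD600 was read at 0 h and 18 h. IC50 was fitted to the background-subtracted OD600 by variable-slope nonlinear regression of log(inhibitor) versus response in GraphPad Prism.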
Compound `CCn1nc(-c2ccc(C(=O)OC)cc2)nc2c(=O)n(C)c(=O)nc1-2` has an IC50 growth inhibition of 0.601 µM.
`O=C1NC(=O)C(c2cnc3ccccn23)=C1c1cn2c3c(cc(F)cc13)CN(C(=O)N1CCCCC1)CC2` gave an IC50 growth inhibition of over 75 µM.
`Clc1cccc(C(c2ccc(CN3CCNCC3)cc2)n2ccnc2)c1` (stereo not drawn) gave an IC50 growth inhibition of 28.7 µM.
`NC(=O)N1CCC(CC(=O)N2CCC([C@H]3c4ncc(Br)cc4CCc4cc(Cl)cc(Br)c43)CC2)CC1` [Lonarfanib] showed an IC50 growth inhibition of 20.4 µM.
Compound `COc1cc(C2c3cc4c(cc3C(OC3OC5COC(C)OC5C(O)C3O)C3COC(=O)C23)OCO4)cc(OC)c1O` (stereo not drawn) [Etoposide] has an IC50 growth inhibition of 23.6 µM.
`COC1=CC(=O)CC(C)C12Oc1c(Cl)c(OC)cc(OC)c1C2=O` (stereo not drawn) [Griseofulvin] was tested, and the IC50 growth inhibition was over 75 µM.
With `C=CC1(C)CC(=O)C2(O)C(C)(O1)C(OC(C)=O)C(O)C1C(C)(C)CCC(O)C12C` (stereo not drawn) [Forskolin] the IC50 growth inhibition was over 75 µM.
`CCCCCCCCCCCCCCCCCCOCC(COP(=O)([O-])OCC[N+](C)(C)C)OC` (stereo not drawn) [Edelfosine] was tested, and the IC50 growth inhibition was 29.1 µM.
In the case of `CSc1ccccc1C(=O)Nc1nc(-c2ccccn2)cs1`, the IC50 growth inhibition is reported as 10.8 µM.
Work on `O=C(Nc1ccc2oc(-c3cccc4ccccc34)nc2c1)c1ccc([N+](=O)[O-])o1` [GNF-PF-2740] yielded an IC50 growth inhibition of 0.941 µM.
Compound `CC(C)Cn1c2c(c(O)c(C(=O)Nc3ncccc3O)c1=O)CCCC2` [CBR572] has an IC50 growth inhibition of 46.9 µM.
`COC(=O)Nc1nc2cc(C(=O)c3ccccc3)ccc2[nH]1` was tested, and the IC50 growth inhibition was 58.4 µM.
`COc1ccc(C2CC(c3cccs3)=NN2C(=O)c2ccco2)cc1OC` (stereo not drawn) was tested, and the IC50 growth inhibition was 83.6 µM.
